Reference: patent publication US11337449B2, “Compositions and their use” (NESTEC S.A., priority 2015, dated 2022)

What was measured:
[1] = tested on: brain myelination (myelin water fraction); assay: Cross-sectional correlation of infant formula nutrient content with brain myelination (myelin water fraction, mcDESPOT MRI); type: in vivo, human; conditions: children up to 5 years fed infant formulas
Experimental: MRI (Magnetic Resonance Imaging): MRI brain scans of infants and children between 0 and 5 years were acquired using a white matter imaging technique. This technique provides a quantitative measure, the Myelin Water Fraction (MWF), which is a surrogate marker of myelin content in the brain. When mapped as a function of time across early childhood, myelination trajectories can be generated.
Infant formula composition: six infant formulas fed to infants participating in a study were analyzed for their composition/level of myelin-relevant nutrients.
Each infant was scanned using the mcDESPOT (multicomponent Driven Equilibrium Single Pulse Observation of T1 and T2) white matter imaging technique Deoni et al. (Magn. Reson. Med. 2008, 60:1372-1387), which provides a quantitative measure of the myelin water fraction (MWF)—a measure of myelin content—at each point throughout the brain. All infants were scanned during natural (i.e. non-sedated) sleep using acoustically-muffled mcDESPOT imaging protocols. Total imaging times ranged from 19 minutes for the youngest toddlers to 24 minutes for the older 4 year-old children.
Following image alignment, non-brain signal removal, and correction for main and transmit magnetic field (B0 and B1) inhomogeneities, a three-pool signal model (comprising the myelin-associated water; intra-extra axonal water; and a non-exchanging free-water pool) was fit to the mcDESPOT data to derive voxel-wise MWF maps.
Each child's map was then non-linearly aligned to a study specific template. White matter masks, corresponding to 5 bilateral regions (frontal, temporal, occipital, parietal, and cerebellar WM) as well as the body, genu, and splenium of the corpus callosum were created from common databases, registered to the common template, and superimposed onto each child's MWF map. Mean values for each region were then determined for each child and used for subsequent developmental analysis and trajectory modeling.
From the cohort described above, children up to 5 years of age that were fed different infant formulas during infancy were included in a large correlation analysis to examine the relationship between formula nutrient composition and brain myelination. The 6 most frequently used formulas in that cohort were analyzed for their nutritional composition. A single general linear model (GLM) was constructed that modeled all quantified nutrients and child age.
Spearman rank correlations were then calculated between the nutrient content and myelin content value (adjusted for child age) at each image voxel, or point within the brain. Significance was defined as p<0.05 corrected for type 1 error using a cluster based correction approach. An association or trend was defined as p<0.15. […] To reduce the number of nutritional components in the model, we examined the inter-nutritional correlation. Using a conservative threshold of 0.9, we excluded nutritional components that were highly correlated with each other across the various formulas.

[2] = tested on: neural progenitor cell (NPCs) from E14 mouse neocortex; assay: Differentiation assay: quantification of neuronal and glial marker expression in monolayer NPC culture; type: cell-based; conditions: 9 d culture; for astrocyte cell density (astrocytic): GFAP normalized to DAPI
Experimental: Generation of neural progenitor cell (NPCs) libraries: dissociation of E14 mouse neocortex E14 pup brains were harvested and placed in ice cold DPBS(1×)+10% Pen/Strep, then they were dissected using a dissecting microscope. From each pup, one brain hemisphere was placed in 2 ml of Neurobasal media/10% P/S/10× Hepes and another brain hemisphere was placed in another tube. The tissue from each tube was aseptically and manually dissociate into single cells, neurobasal complete medium was added and centrifuged at […] for 5 min. The tissue was then re-suspended in neurobasal complete media with GF and placed in a corning suspension culture dish 100 mm×20 mm (#430591). […] Plating Cells in 24 Well Plate for Monolayer Differentiation or EdU Incorporation Assays 24 well glass bottom plates (Mat Tek […]-1.0-13-F Case, glass bottom 24 well plates) were coated with poly-L-ornithin (Sigma P4957) and Fibronection (Sigma F1141) before use in the assay below. Cells were plated (10,000 cells per well) in Complete media with GF for 24 hours (500 ul per well). […] Differentiation Assay: Quantification of Neuronal, Glial and NPC Marker Expression After 24 hours, it was ensured that cells were attached to the plate, then the medium was carefully removed. […] Note: medium contains no GF. […] The cells were culture for 9 d in media plus 2% Nu Serum, the medium was changed every 2nd day. For fixation and subsequent immunohistochemical analysis the medium was removed, the cells were rinsed once with 1×PBS for 5 min, and fixed with 4% PFA in 1×PBS for 15 min at 4° C. The cells were then washed twice with 1×PBS for 5 min, left in 1×PBS, wrapped in foil and left overnight at 4C, or they were immediately primary antibody staining was carried out. PBS was removed and enough AB staining solution (1% Goat serum, 1×PBS, and 0.1% triton X) was added to cover the bottom, the block was kept at room temp for 1 hour. Primary antibody dilutions were made in appropriate amount of AB staining solution, 250 ul per well (the antibodies were only kept out on ice for a short time, mouse anti-MAP2 or TUJ1 1:500 (neuron marker), rabbit anti-GFAP (glial marker) 1:1000, chicken anti-Nestin CFP (EGFP antibody (progenitor cell marker)) 1:1000. AB staining solution was removed and a solution of primary antibodies was added to each chamber. The cells were wrapped in foil and kept overnight 4° C. The cells were then washed with 400 ul of AB staining solution for 5 min once to remove primary antibodies. Secondary antibody solutions were made (enough for 250 ul of each chamber) (Goat anti-mouse alexa 488 1:2000, anti-rabbit Cy3 (1:500), anti-chicken alexa 647 1:500, and 1:5000 Dapi). The cells were incubated at room temp for 1 hour in the dark and washed 2 time in AB staining solution for five mins. They were then kept at 4° C. or Imaged using a GE Cytell imager or LSM 710, Zeiss confocal microscope and analyze with ImageJ software (National Institutes of Health). Microtubule-Associated Protein 2 (MAP2), Neuronal Beta-Tubulin III(TuJ1), Glial Fibrillary Acidic Protein (GFAP), and Nestin CFP (EGFP Antibody). Each marker expression was measured on collected images (integrated density measure in ImageJ) and normalized to DAPI fluorescence, marking all nuclei (integrated density measure). Octanoic Acid were labeled with neuronal beta-tubulin III (TuJ1), subsequent compounds were labeled with Microtubule-associated protein 2 (MAP2).

For [Ca+2] [calcium], the “association of nutrient with myelination (myelin water fraction) over time in the brain” value [1] was “an association with myelination (myelin water fraction) was observed over time in the brain”.
In the case of iron, the “association of nutrient with myelination (myelin water fraction) over time in the brain” value [1] is reported as “an association with myelination (myelin water fraction) was observed over time in the brain”.
With CCCCCCCCCCCCCCCCCC(=O)O [Stearic acid, Stearic Acid] the “astrocyte cell density (astrocytic)” value ([2]; highSA (Dose 3: 10 μM)) was 0.85, the “Neuronal Cell density (Neuronal)” value ([2]; highSA (Dose 3: 10 μM), MAP2 normalized to DAPI) was 0.64 and the “astrocyte cell density (astrocytic)” value ([2]; lowSA (Dose 1: 100 nM)) was 0.68. For the same compound, the “Neuronal Cell density (Neuronal)” value ([2]; lowSA (Dose 1: 100 nM), MAP2 normalized to DAPI) was 0.54, the “astrocyte cell density (astrocytic)” value ([2]; medSA (Dose 2: 1 μm)) was 0.81 and the “Neuronal Cell density (Neuronal)” value ([2]; medSA (Dose 2: 1 μm), MAP2 normalized to DAPI) was 0.66.
CCCCCCCC(=O)O [Octanoic acid, Octanoic Acid] was tested, and the “astrocyte cell density (astrocytic)” value ([2]; HighOA (Dose 3: 250 μM)) was 7.9, the “Neuronal Cell density (Neuronal)” value ([2]; HighOA (Dose 3: 250 μM), TuJ1 normalized to DAPI) was 1.7 and the “astrocyte cell density (astrocytic)” value ([2]; lowOA (Dose 1: 10 μM)) was 3.7. The “Neuronal Cell density (Neuronal)” value ([2]; lowOA (Dose 1: 10 μM), TuJ1 normalized to DAPI) was 1.2, the “astrocyte cell density (astrocytic)” value ([2]; medOA (Dose 2: 50 μM)) was 6.1 and the “Neuronal Cell density (Neuronal)” value ([2]; medOA (Dose 2: 50 μM), TuJ1 normalized to DAPI) was 1.8.
In the case of phosphatidylinositol, the “association of nutrient with myelination (myelin water fraction) over time in the brain” value [1] is reported as “an association with myelination (myelin water fraction) was observed over time in the brain”.
For vitamin B12, the “association of nutrient with myelination (myelin water fraction) over time in the brain” value [1] was “an association with myelination (myelin water fraction) was observed over time in the brain”.
With [Mg+2] [magnesium] the “association of nutrient with myelination (myelin water fraction) over time in the brain” value [1] was “an association with myelination (myelin water fraction) was observed over time in the brain”.
For [Zn] [zinc], the “association of nutrient with myelination (myelin water fraction) over time in the brain” value [1] was “an association with myelination (myelin water fraction) was observed over time in the brain”.
In the case of phosphatidylcholine, the “association of nutrient with myelination (myelin water fraction) over time in the brain” value [1] is reported as “an association with myelination (myelin water fraction) was observed over time in the brain”.
In the case of CCCCC/C=C\C/C=C\C/C=C\C/C=C\CCCC(=O)O [AA, arachidonic acid], the “association of nutrient with myelination (myelin water fraction) over time in the brain” value [1] is reported as “an association with myelination (myelin water fraction) was observed over time in the brain”.
In the case of [P] [phosphorus], the “association of nutrient with myelination (myelin water fraction) over time in the brain” value [1] is reported as “an association with myelination (myelin water fraction) was observed over time in the brain”.
